Source: patent publication US20230330089A1, “COVID PREVENTION AND TREATMENT USING AN INTEGRIN INHIBITOR” (priority 2022, published 2023)

Tested on: SARS-CoV-2 pseudovirus variants
Assay type: cell-based

Row | SMILES | inhibition of D614G pseudovirus infection, single agent vs positive control | inhibition of Beta and Delta variant pseudovirus infection | inhibition of D614G pseudovirus infection | inhibition of D614G, Delta and Omicron pseudovirus infection | inhibition of Omicron and Delta pseudovirus infection compared with other variants | inhibition of infection by D614, D614G, N501Y, E484K, N+E, NEK, R685A pseudovirus variants
1 | CNS(=O)(=O)Nc1nccc(Cc2c(C)c3ccc(Oc4ncccn4)cc3oc2=O)c1F [VS-6766] | inhibited pseudovirus infection | – | – | – | – | –
2 | COc1ccc(S(=O)(=O)N[C@@H](CNc2nc(C)nc(N3CCC(c4ccc5c(n4)NCCC5)CC3)c2C)C(=O)O)cc1 [GLPG-0187] | inhibited pseudovirus infection | most significant decrease in pseudovirus infection by the Delta variant | inhibited pseudovirus infection in a dose-dependent manner | effectively blocked | more significantly than other variants | inhibition of viral infection of each variant
